Test results taken from paper PMC8458504, “Targeting the actin nucleation promoting factor WASp provides a therapeutic approach for hematopoietic malignancies” (Nature Communications, 2021).

Target: T1, YFP-WASp wt (Wiskott–Aldrich Syndrome protein) (Homo sapiens, UniProt P42768)
T1 construct: gene WAS; full-length wild type, YFP-tagged, transiently expressed in HEK 293T (endogenous WIP present); diluted whole-cell lysate, not purified
T1 sequence (P42768 2-502): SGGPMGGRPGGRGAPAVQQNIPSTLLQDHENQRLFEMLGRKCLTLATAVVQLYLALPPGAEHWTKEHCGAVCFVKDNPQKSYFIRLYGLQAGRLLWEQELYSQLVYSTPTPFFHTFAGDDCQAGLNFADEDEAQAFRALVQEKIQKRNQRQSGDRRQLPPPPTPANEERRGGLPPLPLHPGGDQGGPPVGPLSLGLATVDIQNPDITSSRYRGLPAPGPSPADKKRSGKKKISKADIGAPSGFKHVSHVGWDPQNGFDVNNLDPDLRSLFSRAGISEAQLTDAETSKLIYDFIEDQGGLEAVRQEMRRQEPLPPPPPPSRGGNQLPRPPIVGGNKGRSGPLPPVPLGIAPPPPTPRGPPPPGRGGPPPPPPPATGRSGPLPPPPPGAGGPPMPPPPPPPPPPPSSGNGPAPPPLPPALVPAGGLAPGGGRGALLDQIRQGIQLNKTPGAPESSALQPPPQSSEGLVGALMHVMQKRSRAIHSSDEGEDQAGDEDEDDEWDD
Assay: microscale thermophoresis in diluted HEK […] lysate
Type: binding

Kd: 0.0308 ± 0.0136 µM
SMILES: COc1ccc(CN2C(=O)N(CC(C)C)C3(CCN(C4Cc5ccccc5C4)CC3)C2=O)cc1 [SMC #13, 8-(2,3-dihydro-1H-inden-2-yl)-1-isobutyl-3-(4-methoxybenzyl)-1,3,8-triazaspiro[4.5]decane-2,4-dione]
